In the NIST ThermoML archive (doi:10.1021/je200651r):
± gives the expanded uncertainty stated by the source.

Key:
[1] = refractive index (Na D-line) (dimensionless); conditions: 298.15 K; 101.33 kPa; Liquid; Standard Abbe refractometry
[2] = Liquid, Manometric method

SMILES	refractive index [1]	vapor or sublimation pressure ([2]; 343.15 K) [kPa]	vapor or sublimation pressure ([2]; 353.15 K) [kPa]	vapor or sublimation pressure ([2]; 363.15 K) [kPa]
ClCCCCl [1,3-dichloropropane]	1.4462 ± 0.0008	18.31 ± 0.19	26.84 ± 0.22	38.65 ± 0.27
CC[N+](=O)[O-] [nitroethane]	1.3898 ± 0.0009	22.46 ± 0.23	32.84 ± 0.29	47.13 ± 0.37
C[N+](=O)[O-] [nitromethane]	1.3794 ± 0.0009	34.93 ± 0.31	50.14 ± 0.41	70.81 ± 0.53
